Test results: ChEMBL document CHEMBL2413005, “A novel necroptosis inhibitor-necrostatin-21 and its SAR study” (Bioorg Med Chem Lett, 2013)

Columns and labels:
[1] = Inhibition of RIP1/JNK2 (unknown origin)-mediated necrosis
[2] = biological target: Mitogen-activated protein kinase 10/Receptor-interacting serine/threonine-protein kinase 1 (Homo sapiens) (UniProt P53779+Q13546); experiment: Ratio of necrostatin-21 EC50 to compound EC50 for RIP1/JNK2 (unknown origin)-mediated necrosis; format: protein assay
Mitogen-activated protein kinase 10/Receptor-interacting serine/threonine-protein kinase 1 (Homo sapiens), sequence (P53779 whole entry, looked up): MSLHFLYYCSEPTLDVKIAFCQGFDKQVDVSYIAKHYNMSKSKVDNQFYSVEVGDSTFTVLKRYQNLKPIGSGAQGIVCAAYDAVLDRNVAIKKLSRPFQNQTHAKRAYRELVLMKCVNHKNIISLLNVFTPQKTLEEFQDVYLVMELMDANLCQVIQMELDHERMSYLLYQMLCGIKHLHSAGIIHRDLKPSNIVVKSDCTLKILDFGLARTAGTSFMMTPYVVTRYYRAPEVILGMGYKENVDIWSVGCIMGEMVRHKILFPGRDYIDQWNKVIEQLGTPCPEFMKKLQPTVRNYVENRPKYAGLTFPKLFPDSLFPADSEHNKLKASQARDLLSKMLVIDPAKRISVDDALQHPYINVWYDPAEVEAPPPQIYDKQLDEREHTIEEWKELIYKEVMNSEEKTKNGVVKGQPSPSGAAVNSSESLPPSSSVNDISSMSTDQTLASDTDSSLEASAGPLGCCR
Mitogen-activated protein kinase 10/Receptor-interacting serine/threonine-protein kinase 1 (Homo sapiens), sequence (Q13546 whole entry, looked up): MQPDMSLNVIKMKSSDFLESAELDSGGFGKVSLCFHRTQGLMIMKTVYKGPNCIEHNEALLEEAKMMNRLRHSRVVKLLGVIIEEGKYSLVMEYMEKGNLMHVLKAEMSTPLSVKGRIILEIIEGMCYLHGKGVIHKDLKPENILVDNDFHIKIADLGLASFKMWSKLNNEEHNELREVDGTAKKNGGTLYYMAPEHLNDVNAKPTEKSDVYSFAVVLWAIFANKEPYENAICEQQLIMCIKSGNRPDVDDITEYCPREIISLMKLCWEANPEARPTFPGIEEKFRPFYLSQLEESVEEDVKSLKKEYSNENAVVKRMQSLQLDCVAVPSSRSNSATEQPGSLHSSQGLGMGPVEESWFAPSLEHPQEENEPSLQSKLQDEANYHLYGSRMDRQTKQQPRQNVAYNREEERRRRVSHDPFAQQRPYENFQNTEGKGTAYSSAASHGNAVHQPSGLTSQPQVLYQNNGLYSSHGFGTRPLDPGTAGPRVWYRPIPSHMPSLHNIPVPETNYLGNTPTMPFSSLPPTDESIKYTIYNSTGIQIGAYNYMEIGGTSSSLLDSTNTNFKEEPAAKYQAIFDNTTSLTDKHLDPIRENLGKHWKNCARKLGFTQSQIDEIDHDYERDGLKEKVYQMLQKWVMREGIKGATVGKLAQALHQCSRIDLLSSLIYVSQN

CCc1ccc2[nH]c3c(c2c1)CCc1c[nH]nc1-3
EC50 [1]: 780 nM

Fc1cccc2c3c([nH]c12)-c1n[nH]cc1CC3
EC50 [1]: 860 nM

COc1cc2[nH]c3c(c2cc1C#N)CCc1c[nH]nc1-3
EC50 [1]: 14 nM
Ratio EC50 [2]: > 35

O=[N+]([O-])c1cccc2c3c([nH]c12)-c1n[nH]cc1CC3
EC50 [1]: 6320 nM

COc1ccc2c3c([nH]c2c1)-c1n[nH]cc1CC3
EC50 [1]: 100 nM

c1ccc2c(c1)[nH]c1c2ccc2c[nH]nc21
EC50 [1]: 3620 nM

COc1cccc2[nH]c3c(c12)CCc1c[nH]nc1-3
EC50 [1]: 1450 nM

c1ccc2c3c([nH]c2c1)-c1n[nH]cc1C3
EC50 [1]: 5790 nM

FC(F)(F)c1ccc2c3c([nH]c2c1)-c1n[nH]cc1CC3
EC50 [1]: 250 nM

c1[nH]nc2c1CCc1c-2[nH]c2cc3c(cc12)OCCO3
EC50 [1]: 2640 nM

N#Cc1ccc2[nH]c3c(c2c1)CCc1c[nH]nc1-3
EC50 [1]: 80 nM

COc1cc(OC)c2c3c([nH]c2c1)-c1n[nH]cc1CC3
EC50 [1]: 110 nM

Fc1ccc2[nH]c3c(c2c1)CCc1c[nH]nc1-3
EC50 [1]: 140 nM

CC1Cc2c([nH]c3ccccc23)-c2n[nH]cc21 (configuration not stated)
EC50 [1]: 810 nM

Cc1cccc2c3c([nH]c12)-c1n[nH]cc1CC3
EC50 [1]: 760 nM

COc1cc2[nH]c3c(c2cc1OC)CCc1c[nH]nc1-3
EC50 [1]: 47 nM

N#Cc1ccc2c3c([nH]c2c1)-c1n[nH]cc1CC3
EC50 [1]: 110 nM

c1[nH]nc2c1CCc1c-2[nH]c2cc3c(cc12)OCO3
EC50 [1]: 150 nM

Clc1cccc2[nH]c3c(c12)CCc1c[nH]nc1-3
EC50 [1]: 670 nM

COc1ccc2[nH]c3c(c2c1)CCc1c[nH]nc1-3
EC50 [1]: 170 nM

Clc1ccc2c3c([nH]c2c1)-c1n[nH]cc1CC3
EC50 [1]: 250 nM
